Conditions in all cases: stereoisomer not certain
Data set [1] in a line: RP, Waters CORTECS T3, 100 × 2.1 mm, 2.7 µm, 0.3 mL/min, estimated dead time 0.73 min; A: water + 0.1% formic acid, pH 3; B: methanol + 0.1% formic acid, pH 3; gradient (min/%B) 0/0 5/0 25/100 30/100 30.1/0 35/0.
The nature of data set [2]: RP, Waters CORTECS T3, 100 × 2.1 mm, 2.7 µm, 0.15 mL/min, estimated dead time 1.5 min; A: water + 0.1% formic acid, pH 3; B: methanol + 0.1% formic acid, pH 3; gradient (min/%B) 0/5 5/5 25/95 25.1/100 35/100 35.1/5 45/5.
The nature of data set [3]: RP, Waters CORTECS T3, 100 × 2.1 mm, 2.7 µm, 0.2 mL/min, estimated dead time 1.1 min; A: water + 0.1% formic acid, pH 3; B: methanol + 0.1% formic acid, pH 3; gradient (min/%B) 0/0 1/0 6/5 30/100 35/100 35.1/0 40/0.
The nature of data set [4]: RP, Waters CORTECS T3, 100 × 2.1 mm, 2.7 µm, 0.25 mL/min, estimated dead time 0.88 min; A: water + 0.1% formic acid, pH 3; B: methanol + 0.1% formic acid, pH 3; gradient (min/%B) 0/5 5/5 25/95 25.1/100 35/100 35.1/5 45/5.
A short description of data set [5]: HILIC, Merck SeQuant ZIC-HILIC, 150 × 2.1 mm, 5 µm, 0.75 mL/min, estimated dead time 0.44 min; A: water + 0.1% acetic acid + 10 mM ammonium acetate, pH 4; B: 5% water + 95% acetonitrile + 0.1% acetic acid + 10 mM ammonium acetate, pH 4; gradient (min/%B) 0/95 5/95 20/57 25/57 30/95 40/95.
A short description of data set [6]: RP, Waters ACQUITY UPLC BEH C18, 100 × 2.1 mm, 1.7 µm, 0.2 mL/min, estimated dead time 1.1 min; A: water + 0.1% formic acid, pH 3; B: methanol + 0.1% formic acid, pH 3; gradient (min/%B) 0/5 5/5 25/100 30/100 30.1/5 35/5.
Data set [7] can be described thus: HILIC, Waters XBridge BEH Amide, 100 × 2.1 mm, 2.5 µm, 0.5 mL/min, estimated dead time 0.44 min; A: water + 0.1% acetic acid + 10 mM ammonium acetate, pH 4; B: 5% water + 95% acetonitrile + 0.1% acetic acid + 10 mM ammonium acetate, pH 4; gradient (min/%B) 0/95 5/95 20/57 25/57 30/95 40/95.
Data set [8] can be described thus: HILIC, Merck SeQuant ZIC-HILIC, 150 × 2.1 mm, 5 µm, 0.75 mL/min, estimated dead time 0.44 min; A: water + 10 mM ammonium formate, pH 6; B: 5% water + 95% acetonitrile + 10 mM ammonium formate, pH 6; gradient (min/%B) 0/95 5/95 20/57 25/57 30/95 40/95.
Data set [9] in a line: RP, Waters ACQUITY UPLC BEH C18, 100 × 2.1 mm, 1.7 µm, 0.2 mL/min, estimated dead time 1.1 min; A: water + 0.025% formic acid + 20 mM ammonium acetate + 0.055% ammonium hydroxide, pH 7; B: methanol; gradient (min/%B) 0/5 5/5 25/100 30/100 30.1/5 35/5.
The nature of data set [10]: RP, Waters CORTECS T3, 100 × 2.1 mm, 2.7 µm, 0.2 mL/min, estimated dead time 1.1 min; A: water + 0.1% formic acid, pH 3; B: methanol + 0.1% formic acid, pH 3; gradient (min/%B) 0/5 5/5 25/95 25.1/100 35/100 35.1/5 45/5.
A short description of data set [11]: RP, Waters CORTECS T3, 100 × 2.1 mm, 2.7 µm, 0.3 mL/min, estimated dead time 0.73 min; A: water + 0.1% formic acid, pH 3; B: methanol + 0.1% formic acid, pH 3; gradient (min/%B) 0/0 1/0 6/5 30/100 35/100 35.1/0 40/0.
Data set [12] is described as follows: RP, Waters ACQUITY UPLC BEH C18, 100 × 2.1 mm, 1.7 µm, 0.1 mL/min, estimated dead time 2.2 min; A: water + 0.1% formic acid, pH 3; B: methanol + 0.1% formic acid, pH 3; gradient (min/%B) 0/5 5/5 25/95 25.1/100 35/100 35.1/5 45/5.
The nature of data set [13]: RP, Waters CORTECS T3, 100 × 2.1 mm, 2.7 µm, 0.3 mL/min, estimated dead time 0.73 min; A: water + 0.1% formic acid, pH 3; B: methanol + 0.1% formic acid, pH 3; gradient (min/%B) 0/5 5/5 25/100 30/100 30.1/5 35/5.
A short description of data set [14]: RP, Waters CORTECS T3, 100 × 2.1 mm, 2.7 µm, 0.3 mL/min, estimated dead time 0.73 min; A: water + 0.1% formic acid, pH 3; B: methanol + 0.1% formic acid, pH 3; gradient (min/%B) 0/0 5/0 25/100 30/100 30.1/0 35/0. This is another data set of the same source.
Data set [15] can be described thus: RP, Waters CORTECS T3, 100 × 2.1 mm, 2.7 µm, 0.3 mL/min, estimated dead time 0.73 min; A: water + 0.1% formic acid, pH 3; B: methanol + 0.1% formic acid, pH 3; gradient (min/%B) 0/0 1/0 6/5 30/100 35/100 35.1/0 40/0. This is another data set of the same source.
Data set [16] is described as follows: RP, Waters CORTECS T3, 100 × 2.1 mm, 2.7 µm, 0.2 mL/min, estimated dead time 1.1 min; A: water + 0.1% formic acid, pH 3; B: methanol + 0.1% formic acid, pH 3; gradient (min/%B) 0/0 1/0 6/5 30/100 35/100 35.1/0 40/0. This is another data set of the same source.
Data set [17] is described as follows: RP, Waters CORTECS T3, 100 × 2.1 mm, 2.7 µm, 0.1 mL/min, estimated dead time 2.2 min; A: water + 0.1% formic acid, pH 3; B: methanol + 0.1% formic acid, pH 3; gradient (min/%B) 0/0 1/0 6/5 30/100 35/100 35.1/0 40/0.
Data set [18] is described as follows: RP, Waters ACQUITY UPLC BEH C18, 100 × 2.1 mm, 1.7 µm, 0.1 mL/min, estimated dead time 2.2 min; A: water + 0.1% formic acid, pH 3; B: methanol + 0.1% formic acid, pH 3; gradient (min/%B) 0/5 5/5 25/100 30/100 30.1/5 35/5.
The nature of data set [19]: RP, Waters CORTECS T3, 100 × 2.1 mm, 2.7 µm, 0.25 mL/min, estimated dead time 0.88 min; A: water + 0.1% formic acid, pH 3; B: methanol + 0.1% formic acid, pH 3; gradient (min/%B) 0/0 1/0 6/5 30/100 35/100 35.1/0 40/0.
Data set [20] in a line: RP, Waters CORTECS T3, 100 × 2.1 mm, 2.7 µm, 0.3 mL/min, estimated dead time 0.73 min; A: water + 0.1% formic acid, pH 3; B: methanol + 0.1% formic acid, pH 3; gradient (min/%B) 0/5 5/5 25/95 25.1/100 35/100 35.1/5 45/5.
Data set [21] is described as follows: RP, Waters CORTECS T3, 100 × 2.1 mm, 2.7 µm, 0.15 mL/min, estimated dead time 1.5 min; A: water + 0.1% formic acid, pH 3; B: methanol + 0.1% formic acid, pH 3; gradient (min/%B) 0/0 1/0 6/5 30/100 35/100 35.1/0 40/0.
The nature of data set [22]: RP, Waters CORTECS T3, 100 × 2.1 mm, 2.7 µm, 0.1 mL/min, estimated dead time 2.2 min; A: water + 0.1% formic acid, pH 3; B: methanol + 0.1% formic acid, pH 3; gradient (min/%B) 0/5 5/5 25/95 25.1/100 35/100 35.1/5 45/5.

Among the data in the RepoRT retention time repository (doi:10.1016/j.jchromb.2020.122105) are LC retention time values, retold here.

In the case of `CC(=O)N[C@@H](CC(=O)O)C(=O)O` [N-ACETYL-L-ASPARTIC ACID], the LC retention time in [1] is 0.97 min; in data set [2], 1.83 min; in data set [3], 1.42 min; in data set [4], 1.13 min; in data set [5], 13.5 min; in [6] it was 1.84 min. Besides, the LC retention time in data set [7] is 13.5 min; in data set [8] it was 14 min; in data set [9], 1.36 min; in data set [10], 2.78 min; in data set [11] it was 0.96 min.
Turning to `CC(O)(CC(=O)O)C(=O)O` (stereo unspecified) [CITRAMALATE], the LC retention time was 2.32 min in data set [1]; 5.3 min in data set [12]; 3.28 min in data set [2]; 3.28 min in data set [3]; 1.99 min in data set [4]; 12.2 min in [5]. Also, the LC retention time was 2.7 min in data set [6], 12.8 min in [8], 6.38 min in data set [10] and 2.32 min in [11].
On to `Nc1nc2ncc(CNc3ccc(C(=O)NC(CCC(=O)O)C(=O)O)cc3)nc2c(=O)[nH]1` (stereo unspecified) [FOLIC ACID], for which the LC retention time was 10.5 min in [13]; 11.4 min in data set [1]; 11.3 min in data set [14]; 12.2 min in [15]; 12.6 min in data set [2]; 13.2 min in data set [16]. Besides, the LC retention time in [3] is 13.2 min; in data set [17], 11.7 min; in [4], 11.1 min; in [18] it was 13.8 min; in [5], 14.4 min; in data set [6] it was 11.2 min. In addition, the LC retention time in data set [19] is 12.6 min; in data set [8] it was 14.9 min; in data set [9], 1.36 min; in data set [10] it was 15.9 min; in [11] it was 12.2 min; in [20], 10.7 min.
`COc1cc(C=CC(=O)O)ccc1O` [FERULATE]: the LC retention time was 12.3 min in [13]; 17.2 min in data set [12]; 16.9 min in data set [21]; 14.1 min in data set [15]; 15.1 min in [2]; 15.6 min in data set [3]. For the same compound, the LC retention time in data set [22] is 17.2 min; in [5], 3.23 min; in [6] it was 14.3 min; in data set [19] it was 14.8 min; in data set [7] it was 2.26 min; in data set [8] it was 2.09 min. The LC retention time in [9] is 1.78 min; in data set [10] it was 19.1 min.
For the compound `N[C@@H](Cc1ccc(O)c(O)c1)C(=O)O` [3,4-DIHYDROXY-L-PHENYLALANINE], the LC retention time in data set [13] is 0.93 min; in [14], 0.93 min; in data set [12], 2.7 min; in [21], 1.87 min; in data set [15] it was 0.92 min; in data set [2], 1.78 min. In addition, the LC retention time was 1.38 min in data set [16]; 1.42 min in data set [3]; 2.74 min in [18]; 1.38 min in [6]; 1.13 min in data set [19]; 2.75 min in data set [10]. Also, the LC retention time in [20] was 0.9 min.
As for `CSCCC(NC(C)=O)C(=O)O` (racemic) [N-ACETYL-DL-METHIONINE], the LC retention time in data set [1] is 9.23 min; in data set [12], 13.3 min; in [2], 10.4 min; in data set [3] it was 10.6 min; in [4], 7.94 min; in data set [6], 9.48 min. Besides, the LC retention time in data set [7] is 8.06 min; in data set [9], 2.97 min; in data set [10] it was 14.3 min; in data set [11], 8.96 min.
